Assay results from patent publication US11293024B2, “Antisense antibacterial compounds and methods” (priority 2014, dated 2022).
{(RXR)4XB} = cell-penetrating peptide (RXR)4XB; {Ac} = acetyl (COCH3) cap

How the values were obtained:
Assay type in all cases: cell-based, Pseudomonas aeruginosa
[1] = tested on: panel of P. aeruginosa clinical isolates; assay: MIC of PPMOs with sub-inhibitory concentrations of Colistin (polymyxin E); details: Colistin alone at either 1 or 0.5 μg/ml (depending on the strain)
Procedure: MICs are indicated by color and numerical value as in FIG. 1. All MICs were performed in the presence of 1 μg/mL of Colistin unless otherwise noted (*Strains with an asterisk were tested with 0.5 μg/mL of Colistin).
The overnight culture is plated to determine CFU/ml of starting inoculum. From the overnight culture 4 μl is taken into 10 ml of fresh medium and mixed well to obtain a bacterial working suspension. From the 10 ml, 50 μl is taken into 450 μl of saline. Serial dilutions of 10^−2, 10^−3 and 10^−4 are plated on BA. If Polymyxin B Nonapeptide (PMBN) is to be added, 4 μl/ml of PMBN is added from a stock of 1 mg/ml (in water) to the bacterial suspension for a 4 μg/ml final PMBN concentration.
For every PPMO to be tested, the following is done: 6.8 μl of a 1 mM PPMO stock is added to 413.2 μl of bacterial working suspension and vortexed. 200 μl is placed in the first row (A) of a 96-well plate in duplicate. 100 μl of bacterial working suspension is added to rows B thru F. Row A is mixed well by pipetting 10 times. Then 100 μl from each well of row A is added to the 100 μl of bacterial working suspension in each well of row B and mixed well 10 times. Serial dilutions are continued in the same manner through to row F. Finally, 100 μl in the last row is removed and discarded. […]
The plate is read in a plate reader to measure OD600. […]

[2] = tested on: P. aeruginosa PAO1 biofilm; assay: Biofilm prevention in MBEC plate (crystal violet); details: 5 μM PPMO, 2 μg/mL PMBN, MHII, 20 hours; one-way ANOVA p<0.0001
Procedure: P. aeruginosa PAO1 (5×10^5 cfu/mL) was grown in MHII media in an MBEC plate for 20 hours either alone or in the presence of 5 μM of the indicated PPMOs, PMBN alone, (RXR)4, or a scrambled PPMO. All conditions contained 2 μg/mL of PMBN unless indicated otherwise. Pegs were processed for crystal violet or visualized by microscopy at 20 hours. […] FIGS. 6B-6D: Spinning Disk confocal microscopy images of 20 hour biofilm treated with (FIG. 6B) No PPMO, (FIG. 6C) 5 μM Scr PPMO #41, (FIG. 6D) 5 μM RpsJ PPMO #14. PAO1 GFP is shown in green and biofilm is shown in red. The biofilm is stained with 200 μg/mL of Concanavalin A, Alexafluor 647 conjugate.
Pseudomonas aeruginosa Biofilm Prevention in MBEC Plate Protocol
• 1. 10 mL of MH is inoculated with a single colony and incubated at 37° C. and ˜250 rpm for about 5 hours. • 2. The sample is centrifuged for 10 minutes at ˜4000 rpm at 4° C., the supernatant is decanted and the pellet resuspended in 10 mL of 150 mM NaCl or PBS. This step is repeated to wash the pellet 3 times. • 3. The sample is resuspended in 10 mL 150 mM NaCl or PBS. • 4. The OD600 of the sample is taken and cfu/mL is calculated. (OD600 usually between 0.65-0.80). • 5. A Bacterial Working Solution (BWS) is made by inoculating 10 mL of MH to 5×10^5 cfu/mL final concentration. • 6. 2 μL/mL of 1 mg/mL stock PMBN is added to the BWS and vortexed 3 times. • 7. 1 mL of BWS is pipetted into each separate Eppendorf tube for each condition that is tested. • 8. An appropriate amount of PPMO is added to each Eppendorf tube and vortexed 3 times. • 9. Outside wells are filled with fresh MH, NaCl, or PBS to keep the outer pegs from drying out. • 10. One column of the MBEC plate is filled with 150 μL per well from each Eppendorf tube (one condition per column). • 11. Pegs are placed into the MBEC plate and the edges covered with a breathable membrane. • 12. The MBEC plate is incubated for 18-20 hours at 37° C. and 110 rpm. Day 2:
1. […] The final OD570 of the 10× dilution of solution should be approximately 0.500 absorbance. […]
2. OD reading: The OD570 for the 96-well plate from step 1e is determined. […]

[3] = tested on: P. aeruginosa strains that are multidrug resistant (strain T63547); assay: MIC in multidrug resistant P. aeruginosa strains; details: strain T63547 (CF sputum; resistant to extended-spectrum penicillins, cephalosporins, quinolones, carbapenems)
Procedure: In addition, MIC values of 8 μM or less in P. aeruginosa strains that are multidrug resistant have been achieved. For example, strain T63547 was isolated from the sputum of a CF patient and was resistant to extended-spectrum penicillins, cephalosporins, quinolones and carbapenems. The RpsJ PPMOs and the RpmB PPMO had MIC values of 4 μM. PPMOs also retained activity in mucoid strains of P. aeruginosa (such as strain H27925; CF sputum sample). This is a critically important finding, as mucoid Pseudomonas poses significant treatment challenges.

[4] = tested on: P. aeruginosa PAO1; assay: MIC of Ampicillin as a function of AmpR PPMO and PMBN concentration
Excerpt: An AmpR PPMO combined with PMBN restores activity of Ampicillin in P. aeruginosa PAO1.
The ability to use PPMOs as adjunctive therapeutics to restore antibiotic sensitivity to existing drugs could be an intriguing way to explore treatment of multidrug-resistant pathogens that are increasingly being found in chronically infected patients. Frequently encountered resistance genes (β-lactamases, efflux pumps) were targeted. […] An exemplary PPMO, as set forth in Table 5 and illustrated below, was designed to target AmpR in P. aeruginosa, a global transcriptional regulator that regulates β-lactamases such as AmpC. […] Testing the AmpR PPMO in animal models would be a reasonable alternative approach to thinking of antisense as adjuvant therapy with traditional antibiotics.

With polymyxin E [Colistin] the “growth inhibition by Colistin alone” value [1] was “did not inhibit growth”.

“PPMO #5: RpmB PMO CTCTAGACATG, 5′ TEG, 3′ (RXR)4XB CPP” was tested, and the “prevention of biofilm (crystal violet)” value [2] was “statistically significant prevention of biofilm” and the MIC [3] was 4 µM.

`CC1(C)S[C@@H]2[C@H](NC(=O)[C@H](N)c3ccccc3)C(=O)N2[C@H]1C(=O)O` [Ampicillin, ampicillin, reference compound] gave an MIC ([4]; Pseudomonas aeruginosa, PAO1, in the absence of PPMO) of 512 µg/mL.

“PPMO #2: LpxC PMO GTTGTTTGATC, 5′ TEG, 3′ (RXR)4XB CPP” was tested, and the “prevention of biofilm (crystal violet)” value [2] was “statistically significant prevention of biofilm”.

With “PPMO #28: ampR PMO GTCGAACCAAT, 5′ (RXR)4XB CPP, 3′ COCH3 (all phosphorodiamidate morpholino (PMO), 5' {(RXR)4XB}, 3' {Ac})” the “MIC of Ampicillin” value ([4]; in the presence of 32 μM AmpR PPMO and 4 μg/ml PMBN) was 4 µg/mL.
